# The supplement of paper PMC10307832
# Tests used:
# Assay in all cases: relative viability (nuclei count vs DMSO), 5 days (fraction); higher = more cells survive
# [1] = compound: C[C@@]1(C(=O)Nc2ccc(F)nc2)CCCN1c1nc(Nc2cc(C3CC3)n[nH]2)c2cccn2n1 + C[C@]1(O)C[C@@H](c2nc(-c3ccc4ccc(-c5ccccc5)nc4c3)c3c(N)nccn32)C1 [Linsitinib] (partner 1 µM)
# Method in brief: (§1)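 Five library-drug doses in √10 steps were combined with a fixed anchor-drug dose, or a single drug was given alone, by pin tool to lung cancer cell lines in 1536-well plates the day after seeding. Nuclei were stained and counted after 5 days. Relative viability is the nuclei count in treated wells over that in vehicle wells, taken as the median of duplicate plates.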
# [2] = compound: CC1(C)CNc2cc(NC(=O)c3cccnc3NCc3ccncc3)ccc21 [Motesanib] + CC1(C)CCC(c2ccc(Cl)cc2)=C(CN2CCN(c3ccc(C(=O)NS(=O)(=O)c4ccc(N[C@H](CCN5CCOCC5)CSc5ccccc5)c(S(=O)(=O)C(F)(F)F)c4)cc3)CC2)C1 [Navitoclax] (partner 0.5 µM)
# Method in brief: as §1
# [3] = compound: C[C@@]1(C(=O)Nc2ccc(F)nc2)CCCN1c1nc(Nc2cc(C3CC3)n[nH]2)c2cccn2n1 + C[C@@H](Oc1cc(-c2cnn(C3CCNCC3)c2)cnc1N)c1c(Cl)ccc(F)c1Cl [Crizotinib] (partner 1 µM)
# Method in brief: as §1
# [4] = compound: CC1(C)CNc2cc(NC(=O)c3cccnc3NCc3ccncc3)ccc21 [Motesanib] + CC(=O)c1c(C)c2cnc(Nc3ccc(N4CCNCC4)cn3)nc2n(C2CCCC2)c1=O [Palbociclib] (partner 0.5 µM)
# Method in brief: as §1
cell line,measurement,setting,value
SW 1573,relative viability,[1]; first compound 0.04 µM,0.914
same,relative viability,[1]; first compound 0.1265 µM,0.665
same,relative viability,[1]; first compound 0.4 µM,0.656
same,relative viability,[1]; first compound 1.265 µM,0.806
same,relative viability,[2]; first compound 0.01 µM,0.902
same,relative viability,[2]; first compound 0.03162 µM,0.994
same,relative viability,[2]; first compound 0.1 µM,0.824
same,relative viability,[2]; first compound 0.3162 µM,1.1
same,relative viability,[2]; first compound 1 µM,1.06
same,relative viability,[3]; first compound 0.04 µM,0.665
same,relative viability,[3]; first compound 0.1265 µM,0.63
same,relative viability,[3]; first compound 0.4 µM,0.509
same,relative viability,[3]; first compound 1.265 µM,0.531
same,relative viability,[4]; first compound 0.01 µM,0.321
same,relative viability,[4]; first compound 0.03162 µM,0.385
same,relative viability,[4]; first compound 0.1 µM,0.498
same,relative viability,[4]; first compound 0.3162 µM,0.38
same,relative viability,[4]; first compound 1 µM,0.444
